Measurements as given in publication PMC3679022, “A Cancer Specific Cell-Penetrating Peptide, BR2, for the Efficient Delivery of an scFv into Cancer Cells” (PLoS ONE, 2013).
Residues, ends and D or L forms follow the SMILES beside them.

Legend:
[1] = system: human erythrocytes; format: cell-based; settings: 25 µM, pH 7.4
Protocol: Hemolytic activity was assayed as described by Aboudy et al. with slight modifications; 3 ml of freshly prepared human erythrocytes was washed with isotonic PBS, pH 7.4, until the color of the supernatant turned clear. The washed erythrocytes were then diluted to a final volume of 20 ml with the same buffer. Peptide samples (10 µl), serially diluted in PBS, were added to 190 µl of the cell suspension in microcentrifuge tubes. Following gentle mixing, the tubes were incubated at 37°C for 30 min and then centrifuged at 4,000×g for 5 min. The supernatant (100 µl) was removed to a new tube and the absorbance at 567 nm was determined. The relative optical density, as compared with that of the cell suspension treated with 0.2% Triton X-100, was defined as percentage of hemolysis. The hemolysis percentage was calculated using the following equation: percentage hemolysis = [(Abs 567 nm in the peptide solution – Abs 567 nm in PBS)/(Abs 567 nm in 0.2% Triton X-100 – Abs 567 nm in PBS)]×100.
(§1) (B,C) In vitro cytotoxicity of peptides.

[2] = system: cancer cells (HeLa, HCT116 and B16/F10); test: Confocal laser scanning microscopy of FITC-labeled peptide uptake, cancer cells; format: cell-based, human, mouse; settings: FITC-labeled peptide 5 µM, 30 min, 37°C, live unfixed cells
Protocol: (§2) To investigate the cell-penetrating ability and the intracellular distribution of the internalized peptides, live confocal microscopy was performed on three cancer lines (HeLa, HCT116 and B16/F10) and three normal cell lines (HaCat, BJ and NIH 3T3). Briefly, cells (2×10^5) were plated on a glass coverslip placed in a 6-well plate, grown overnight, and then incubated with FITC-labeled peptides (5 µM for each cell line) for 30 min. The cells were then rinsed three times with phosphate buffered saline (PBS, pH 7.4), and mounted on microscope slides with fluorescence mounting solution (Dako Corp, Carpinteria, CA). Colocalization of BR2 with lysosomes was observed by using LysoTracker Red DND-99 (Molecular Probe, Eugene, OR). To avoid the effects of fixation artifacts, involving both methanol and paraformaldehyde, cells were not fixed, [27]. The distribution of FITC-labeled peptides was analyzed using a confocal scanning laser Zeiss LSM 510 microscope (Jena, Germany) equipped with a 40× and 20× objective. Fluorophores were excited with an argon laser (488 nm) for FITC and a HeNe laser (543 nm) for LysoTracker Red.
as §1

[3] = system: normal cells (HaCat, BJ and NIH 3T3); test: Confocal laser scanning microscopy of FITC-labeled peptide uptake, normal cells; format: cell-based, human, mouse; settings: FITC-labeled peptide 5 µM, 30 min, 37°C, live unfixed cells
Protocol: as §2, §1

[4] = system: HeLa cells; format: cell-based, human; settings: FACS
Protocol: To evaluate the internalization of FITC-labeled peptides, HeLa cells were seeded onto 12-well plates at a density of 2×10^5 cells per well and incubated for 24 h. FITC-labeled peptides, at various concentrations ranging from […], were then incubated with the cells for 30 min at 37°C. To compare the cellular uptake of peptides, cancer and normal cells were treated with FITC-labeled peptides (each, 10 µM) and incubated for 30 min at 37°C. Following the incubation, cells were washed three times with ice-cold PBS to remove excess extracellular complexes. Next, the cells were treated with trypsin (1 mg/ml) for 10 min to remove any remaining peptides bound to the cell surface. After trypsinization, the cells were collected by centrifugation (1,000×g for 5 min), resuspended with 500 µl ice-cold 2% FBS/PBS containing propidium iodide (PI), and then immediately analyzed (10,000 events/sample) by fluorescence activated cell sorting (FACS).
To understand further the cell-penetrating mechanism of peptides, the effects of temperature and metabolic inhibitors were examined. To elucidate the temperature dependency, HeLa cells were incubated at 4°C for 30 min prior to the addition of the peptides. Next, cells were treated with FITC-labeled peptides (each, 5 µM) at 4°C for 30 min. For the energy-depletion study, HeLa cells were preincubated with sodium azide (NaN3, 10 mM) at 37°C for 1 h and then incubated with FITC-labeled peptides (each, 5 µM) at 37°C for 30 min.
To study the role of endocytosis in peptide uptake, cells were pretreated with several endocytosis inhibitors at 37°C for 1 h: (i) amiloride (5 mM), which is known to block macropinocytosis by inhibiting a sodium channel; (ii) nocodazole (100 ng/ml), which inhibits the clathrin-mediated pathway; and (iii) methyl-ß-cyclodextrin (MßCD, 5 mM), which inhibits lipid raft-mediated processes by depleting cholesterol from the plasma membrane. All inhibitors were purchased from Sigma (St. Louis, MO).
To examine the effects of negatively charged components on the cell surface for peptide internalization, HeLa cells were pretreated with gangliosides (monosialoganglioside GM3 from canine blood), heparin sulfate, or sialic acid (Neu5Ac, all from Sigma) (20 µg/ml) for 30 min. For the inhibition of ganglioside biosynthesis, cells were pretreated with D-threo-1-phenyl-2-hexadecanoyl amino-3-morpholino-1-propanol (PPMP, 5 µM) for 48 h.
For all of these experimental conditions, flow cytometry analyses were performed with live cells using a Becton Dickinson FACSCalibur flow cytometer (BD Biosciences, San Diego, CA). In each case, the fluorescence of 10,000 viable cells was acquired. Viable cells were gated based on a sideward and forward scatter. For data analysis, WinMDI software (Joe Trotter, Scripps Research Institute, La Jolla, CA) was used. The statistical significance was evaluated by Student’s t-test at a 95% confidence interval.
Figure 2 BR2 specifically penetrates cancer cell membranes in a concentration-dependent manner. (A) Analysis of the cell-penetrating efficiency of each peptide in different cell types by flow cytometry. FITC-labeled Tat, BR1 and BR2 peptides (10 µM) were added to different cell types: HeLa, HCT116 and B16/F10 cancer cells and HaCat, BJ and NIH 3T3 normal cells. After 30 min of incubation at 37°C, the FITC-positive cells were counted by flow cytometry. Values represent the percentage of fluorescence-positive cells in the total cell population. (B) Quantitative assessment of cell penetration of each peptide by flow cytometry. HeLa cells were incubated with FITC-labeled peptides at concentrations of 1, 2, 5, or 10 µM for 30 min at 37°C. Afterwards the cells were washed with cold PBS and harvested and cellular fluorescence was analyzed by flow cytometry. […] Prior to analysis, extracellular fluorescence of surface bound peptides was removed by a trypsin treatment (1 mg/ml for 10 min). […]

[5] = system: HCT116 cells (K-ras mutated cells); test: Cell proliferation assay (MTT); format: cell-based, human; parameters: dose or concentration left out as unconfirmed; settings: same concentrations as fusion proteins (Fig. S4:), 24 h
Protocol: To assess the anti-proliferative activity of peptides and anti-Ras scFv fusion proteins, HCT116 cells (K-ras mutated cells) were seeded in 96-well plates at a density of 2×10^4 cells/well in 100 µL of DMEM supplemented with 10% FBS and cultured for 24 h at 37°C. […] Cell viability was measured with the 3-(4,5-dimethylthiazol-2-yl)-2,5-diphenyl tetrazolium bromide (MTT) assay using the CellTiter 96® Non-radioactive Cell Proliferation assay kit (Promega, Madison, WI) according to the manufacturer’s instructions. The absorbance of the solution was measured at 570 nm using a Microplate Reader (Bio-Rad). Cell viability was expressed as the percentage of viable cells treated with scFv or peptide-scFv fusion proteins compared to the PBS-treated control (100%). All experiments were done in triplicate.
Figure 4 Intracellular uptake of peptides and anti-Ras scFv fusion proteins and their anti-proliferative activity. […] (B) Protein uptake was analyzed by Western blotting of fractionated lysates from HCT116 cells treated with PBS, anti-Ras scFv, BR2- or Tat-scFv fusion protein (each, 2 µM) at 37°C for 2 h. […] Cell proliferation was determined using the MTT assay. […]
HCT116 cells were seeded in 96-well plates at a density of 2×10^4 cells/well in 100 μl of DMEM supplemented with 10% FBS and cultured for 24 h at 37°C. […] The absorbance of the solution was measured at 570 nm using a Microplate Reader (Bio-Rad). […]

## CC(C)C[C@H](NC(=O)CNC(=O)[C@H](C)NC(=O)[C@@H](N)CCCNC(=N)N)C(=O)N[C@@H](CCC(N)=O)C(=O)N[C@@H](Cc1ccccc1)C(=O)N1CCC[C@H]1C(=O)N[C@H](C(=O)NCC(=O)N[C@@H](CCCNC(=N)N)C(=O)N[C@@H](CC(C)C)C(=O)N[C@@H](CC(C)C)C(=O)N[C@@H](CCCNC(=N)N)C(=O)N[C@@H](CCCNC(=N)N)C(=O)N[C@@H](CC(C)C)C(=O)N[C@@H](CC(C)C)C(=O)N[C@@H](CCCNC(=N)N)C(=O)N[C@@H](CCCNC(=N)N)C(=O)N[C@@H](CC(C)C)C(=O)N[C@@H](CC(C)C)C(=O)N[C@@H](CCCNC(=N)N)C(=O)O)C(C)C [BR3, buforin IIb] (H-RAGLQFPVGRLLRRLLRRLLR-OH)
[1]
  hemolysis: ≥ 5%

## RAGLQFPVGRLLR [BR1]
[2]
  cellular uptake (confocal microscopy): negligible cellular uptake levels
[3]
  cellular uptake (confocal microscopy): negligible cellular uptake levels

## RKKRRQRRR [Tat, well-known CPP Tat (49–57), reference compound]
[4]; FITC-labeled peptide 5 µM, 30 min at 4°C after preincubation at 4°C
  decrease of cellular uptake at 4°C compared to 37°C: 31.6%
[4]; NaN3 10 mM preincubation 1 h 37°C, then FITC-labeled peptide 5 µM 30 min 37°C
  reduction of uptake by ATP depletion (sodium azide): 42.5%
[4]; PPMP 5 µM pretreatment 48 h
  effect of ganglioside synthesis inhibitor PPMP on peptide uptake: not
[4]; gangliosides (GM3) 20 µg/ml, 30 min
  effect of exogenous gangliosides on peptide penetration: not affected
[4]; heparin 20 µg/ml, 30 min
  effect of exogenous heparin on peptide uptake: severely reduced
[4]; sialic acid (Neu5Ac) 20 µg/ml, 30 min
  effect of exogenous sialic acids on peptide penetration: not affected
[5]
  anti-proliferative activity of peptide alone: did not show any detectable inhibitions
